Assays:
Type in all cases: in vivo
[1] = tested on: harmful plants such as Stellaria media, Lolium multiflorum, Amaranthus retroflexus, Sinapis alba, Avena sativa and Setaria viridis; experiment: Pre-emergence herbicidal action (greenhouse pot test); details: application rate of 1 kg or less active substance per hectare, scored after 3 to 4 weeks vs untreated controls
From the text: Seeds and rhizome sections of monocotyledonous and dicotyledonous harmful plants are placed in sandy loam in plastic pots and covered with soil. The compounds according to the invention which are formulated in the form of wettable powders or emulsion concentrates at various rates, are then applied to the surface of the covering soil as aqueous suspension or emulsion at an application rate of 600 to 800 l of water per ha (converted).
After the treatment, the pots are placed in the greenhouse and kept under good growth conditions for the weeds. Visual scoring of the plant damage or the adverse effect on emergence is done after the test plants have emerged after an experimental period of 3 to 4 weeks in comparison with untreated controls.

[2] = tested on: harmful plants which are typical of rice crops such as, for example, Cyperus monti, Echinochloa crus-galli and Sagittaria pygmaea; experiment: Activity against harmful plants in rice (paddy rice conditions); details: poured into paddy water at various dosages; scored about three weeks after application vs untreated controls; note: test concentration or dose not given here
Method: Transplanted and seeded rice and typical grass weeds and broad-leaved weeds in rice crops are grown in the greenhouse under paddy rice conditions (depth of the paddy water: 2-3 cm) in sealed plastic pots until they have reached the three-leaf stage (Echinochloa crus-galli 1.5-leaf). They are then treated with the compounds according to the invention. To this end, the formulated active substances are suspended, dissolved or emulsified in water and the product is poured into the paddy water of the test plants at various dosages. After the treatment has been carried out thus, the test plants are placed in the greenhouse under optimal growth conditions and kept like this over the entire experimental period.
About three weeks after application, the evaluation is carried out by is of visually scoring the plant damage in comparison with untreated controls.

[3] = tested on: harmful plants such as Sinapis alba, Echinochloa crus-galli, Lolium multiflorum, Stellaria media, Cyperus iria, Amaranthus retroflexus, Setaria viridus and …; experiment: Post-emergence herbicidal action (greenhouse pot test); details: three-leaf stage, application rate of 1 kg and less of active substance per hectare, scored after approx. 3 to 4 weeks vs untreated controls
Method: Seeds or rhizome sections of monocotyledonous and dicotyledonous weeds are placed in sandy loam soil in plastic pots, covered with soil and grown in the greenhouse under good growth conditions. Three weeks after sowing, the experimental plants are treated at the three-leaf stage. The compounds according to the invention, which are formulated as wettable powders or as emulsion concentrates, are sprayed at various rates onto the green plant organs at an application rate of 600 to 800 l of water per ha (converted). After the experimental plants have remained in the greenhouse for approx. 3 to 4 weeks under optimal growth conditions, the effect of the compositions is scored visually in comparison with untreated controls. The substances according to the invention also have a good herbicidal action against a broad spectrum of economically important grass weeds and broad-leaved weeds when applied post-emergence.

CC(C)(F)c1nc(N)nc(NC(CC2CC2)[C@@H]2C[C@H]2c2ccccc2)n1 (relative stereo) [Example 5-1]
very good herbicidal activity: herbicidal activity, visual scoring of plant damage or adverse effect on emergence [1] | herbicidal activity, visual scoring of plant damage [2] | herbicidal activity, visual scoring [3]

CC(C)c1nc(N)nc(NC(CC2CC2)[C@@H]2C[C@H]2c2ccccc2)n1 (relative stereo) [Example 5-2]
very good herbicidal activity: herbicidal activity, visual scoring of plant damage or adverse effect on emergence [1] | herbicidal activity, visual scoring of plant damage [2] | herbicidal activity, visual scoring [3]

CCC(F)(CC)c1nc(N)nc(NC(CC2CC2)[C@@H]2C[C@H]2c2ccccc2)n1 (relative stereo) [Example 5-3]
very good herbicidal activity: herbicidal activity, visual scoring of plant damage or adverse effect on emergence [1] | herbicidal activity, visual scoring of plant damage [2] | herbicidal activity, visual scoring [3]

CCC(F)c1nc(NC=O)nc(NC(CC2CC2)[C@@H]2C[C@H]2c2ccccc2)n1 (relative stereo) [Example 5-4]
very good herbicidal activity: herbicidal activity, visual scoring of plant damage or adverse effect on emergence [1] | herbicidal activity, visual scoring of plant damage [2] | herbicidal activity, visual scoring [3]
